Calls of active or inactive are those of the source.
Legend:
Cytochrome P450 2C19 = Cytochrome P450 2C19 (Homo sapiens, UniProt P33261); assay: Cytochrome panel assay with activity outcomes. Panel member name: p450-cyp2c19 Compounds with AC50 equal or less than 10 uM are considered active; assay type: functional; conditions: read-out: AC50
Cytochrome P450 1A2 = biological target: T1, Cytochrome P450 1A2 (Homo sapiens, UniProt P05177);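 note: PubChem cytochrome P450 panel assay, CYP1A2 panel member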
T1 sequence (P05177 whole entry): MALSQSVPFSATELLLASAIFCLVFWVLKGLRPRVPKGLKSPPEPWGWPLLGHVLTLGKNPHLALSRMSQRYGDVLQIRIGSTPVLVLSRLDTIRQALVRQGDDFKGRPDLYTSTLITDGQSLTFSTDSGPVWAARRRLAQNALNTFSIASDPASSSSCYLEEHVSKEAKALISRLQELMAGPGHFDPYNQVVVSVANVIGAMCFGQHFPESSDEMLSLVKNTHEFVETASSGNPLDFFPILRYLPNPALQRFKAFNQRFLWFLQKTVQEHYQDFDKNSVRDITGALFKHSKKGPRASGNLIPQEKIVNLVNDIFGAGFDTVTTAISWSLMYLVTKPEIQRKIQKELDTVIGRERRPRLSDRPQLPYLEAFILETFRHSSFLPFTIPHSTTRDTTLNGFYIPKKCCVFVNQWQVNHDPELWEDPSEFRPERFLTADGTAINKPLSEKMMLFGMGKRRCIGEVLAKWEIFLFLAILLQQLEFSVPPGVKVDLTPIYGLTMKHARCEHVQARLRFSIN

Cytochrome P450 2C9 [1] = biological target: T2, Cytochrome P450 2C9 (Homo sapiens, UniProt P11712)
T2 sequence (P11712 whole entry): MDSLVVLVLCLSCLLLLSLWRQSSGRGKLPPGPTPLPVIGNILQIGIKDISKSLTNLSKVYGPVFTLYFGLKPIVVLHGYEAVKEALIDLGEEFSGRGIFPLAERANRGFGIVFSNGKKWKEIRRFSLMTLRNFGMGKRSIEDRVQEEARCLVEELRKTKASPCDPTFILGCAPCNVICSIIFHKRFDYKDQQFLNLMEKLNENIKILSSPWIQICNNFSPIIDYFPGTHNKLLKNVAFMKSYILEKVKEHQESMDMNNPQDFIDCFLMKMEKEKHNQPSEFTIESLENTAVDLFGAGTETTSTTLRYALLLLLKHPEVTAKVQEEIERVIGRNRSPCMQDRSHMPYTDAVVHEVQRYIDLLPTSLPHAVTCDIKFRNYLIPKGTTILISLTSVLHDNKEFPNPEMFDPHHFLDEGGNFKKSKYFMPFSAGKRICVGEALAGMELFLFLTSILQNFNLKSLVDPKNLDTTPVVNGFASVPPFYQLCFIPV

[2] = decrease of insulin promoter-GFP reporter – imaging, high-content screening, mouse beta cells (AID 1628); assay type: functional; conditions: MIN6
[3] = MIN6 cell viability loss – mouse insulinoma, cytotoxicity control, dose response (AID 2122); assay type: functional;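 note: confirmatory high-throughput counterscreen run to flag cytotoxic compounds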
Bcl-2-like protein 1 = Bcl-2-like protein 1 (Homo sapiens, UniProt Q07817); assay: blockers of BCLXL peptide binding – biochemical, fluorescence polarization, 1536-well, selectivity assay for MCL1 inhibitor project, dose response (AID 2218)
Bcl-2-like protein 1, sequence (Q07817 whole entry): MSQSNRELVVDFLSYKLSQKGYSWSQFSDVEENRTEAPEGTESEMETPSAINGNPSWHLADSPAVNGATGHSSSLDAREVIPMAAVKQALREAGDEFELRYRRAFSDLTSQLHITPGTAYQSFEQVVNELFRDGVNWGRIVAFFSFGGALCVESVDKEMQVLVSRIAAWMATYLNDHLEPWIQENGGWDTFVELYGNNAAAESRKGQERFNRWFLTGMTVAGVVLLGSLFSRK

[4] = biological target: T3, Alkaline phosphatase, tissue-nonspecific isozyme (Homo sapiens, UniProt P05186); assay: TNAP enzyme inhibition by screening hits, dose response, selectivity assay for mouse IAP inhibitor project, biochemical, human TNAP, uHTS hits (AID 488906); assay type: functional
T3 sequence (P05186 whole entry): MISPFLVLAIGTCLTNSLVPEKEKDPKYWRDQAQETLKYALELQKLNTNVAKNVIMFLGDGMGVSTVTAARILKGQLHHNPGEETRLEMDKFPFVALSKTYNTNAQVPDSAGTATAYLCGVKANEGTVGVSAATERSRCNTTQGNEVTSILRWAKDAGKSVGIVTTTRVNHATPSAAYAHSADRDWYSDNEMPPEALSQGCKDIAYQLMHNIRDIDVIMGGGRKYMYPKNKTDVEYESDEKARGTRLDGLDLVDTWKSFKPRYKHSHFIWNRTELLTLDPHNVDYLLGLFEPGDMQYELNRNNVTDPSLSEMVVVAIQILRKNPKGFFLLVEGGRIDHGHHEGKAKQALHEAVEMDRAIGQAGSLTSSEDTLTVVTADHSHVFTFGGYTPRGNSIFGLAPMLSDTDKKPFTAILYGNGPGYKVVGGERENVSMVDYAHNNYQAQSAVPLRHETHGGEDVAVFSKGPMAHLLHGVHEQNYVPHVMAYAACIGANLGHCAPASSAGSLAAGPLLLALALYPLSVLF

[5] = biological target: Induced myeloid leukemia cell differentiation protein Mcl-1 (Homo sapiens, UniProt Q07820); assay: blockers of MCL1 binding to BIM peptide – biochemical, fluorescence polarization, BIM-BH3 peptide, 1536-well, dose response (AID 2217)
Induced myeloid leukemia cell differentiation protein Mcl-1, sequence (Q07820 whole entry): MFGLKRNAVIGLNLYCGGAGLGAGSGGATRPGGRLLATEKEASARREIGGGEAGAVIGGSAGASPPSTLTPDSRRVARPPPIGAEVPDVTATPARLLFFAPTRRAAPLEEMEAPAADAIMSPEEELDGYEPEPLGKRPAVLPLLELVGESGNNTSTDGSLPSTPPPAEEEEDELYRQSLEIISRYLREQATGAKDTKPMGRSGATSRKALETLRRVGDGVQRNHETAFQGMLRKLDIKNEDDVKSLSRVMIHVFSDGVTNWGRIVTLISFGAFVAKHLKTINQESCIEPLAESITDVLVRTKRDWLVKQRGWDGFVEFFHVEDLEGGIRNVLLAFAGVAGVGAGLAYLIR

[6] = biological target: T4, Intestinal-type alkaline phosphatase (Homo sapiens, UniProt P09923); assay: inhibition of human intestinal alkaline phosphatase – biochemical, dose response (AID 488876); assay type: functional
T4 sequence (P09923 whole entry): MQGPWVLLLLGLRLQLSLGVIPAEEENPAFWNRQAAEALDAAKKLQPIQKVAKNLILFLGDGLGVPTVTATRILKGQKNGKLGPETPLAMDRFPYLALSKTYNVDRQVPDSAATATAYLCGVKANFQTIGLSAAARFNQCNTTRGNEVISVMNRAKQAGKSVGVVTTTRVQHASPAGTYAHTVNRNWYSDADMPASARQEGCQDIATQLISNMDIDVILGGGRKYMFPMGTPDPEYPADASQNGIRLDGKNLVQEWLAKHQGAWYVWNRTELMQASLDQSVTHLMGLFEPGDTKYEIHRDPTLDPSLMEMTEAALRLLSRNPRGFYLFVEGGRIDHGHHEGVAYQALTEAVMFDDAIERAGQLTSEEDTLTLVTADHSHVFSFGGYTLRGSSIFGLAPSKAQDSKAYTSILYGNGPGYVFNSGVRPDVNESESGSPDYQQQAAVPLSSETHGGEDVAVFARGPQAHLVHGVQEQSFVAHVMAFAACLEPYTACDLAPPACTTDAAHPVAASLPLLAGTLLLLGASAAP

[7] = biological target: T5, Intestinal-type alkaline phosphatase (Mus musculus, UniProt P24822); assay: PubChem AID 488785; assay type: functional
T5 sequence (P24822 whole entry): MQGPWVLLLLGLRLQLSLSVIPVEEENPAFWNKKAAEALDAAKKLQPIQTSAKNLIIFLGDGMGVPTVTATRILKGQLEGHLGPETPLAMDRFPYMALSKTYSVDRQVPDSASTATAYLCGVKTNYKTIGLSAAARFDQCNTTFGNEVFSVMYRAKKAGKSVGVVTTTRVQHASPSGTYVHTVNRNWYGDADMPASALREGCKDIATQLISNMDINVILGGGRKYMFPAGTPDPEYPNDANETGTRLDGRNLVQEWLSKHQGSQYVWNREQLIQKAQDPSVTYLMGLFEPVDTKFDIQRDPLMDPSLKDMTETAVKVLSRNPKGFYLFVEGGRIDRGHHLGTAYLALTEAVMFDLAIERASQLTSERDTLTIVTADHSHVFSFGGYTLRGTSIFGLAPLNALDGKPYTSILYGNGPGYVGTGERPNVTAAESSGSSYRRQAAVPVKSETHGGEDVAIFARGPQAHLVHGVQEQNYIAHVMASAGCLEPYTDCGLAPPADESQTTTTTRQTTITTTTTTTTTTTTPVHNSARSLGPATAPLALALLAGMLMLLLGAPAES

Aminopeptidase N = biological target: T6, Aminopeptidase N (Plasmodium falciparum FcB1/Columbia, UniProt O96935); assay: malaria alanyl aminopeptidase activity blockers – biochemical, fluorogenic H-Leu-NHMec substrate, 1536-well (AID 1445); parameters: species or system Plasmodium falciparum 3D7, 3D7
T6 sequence (O96935 whole entry): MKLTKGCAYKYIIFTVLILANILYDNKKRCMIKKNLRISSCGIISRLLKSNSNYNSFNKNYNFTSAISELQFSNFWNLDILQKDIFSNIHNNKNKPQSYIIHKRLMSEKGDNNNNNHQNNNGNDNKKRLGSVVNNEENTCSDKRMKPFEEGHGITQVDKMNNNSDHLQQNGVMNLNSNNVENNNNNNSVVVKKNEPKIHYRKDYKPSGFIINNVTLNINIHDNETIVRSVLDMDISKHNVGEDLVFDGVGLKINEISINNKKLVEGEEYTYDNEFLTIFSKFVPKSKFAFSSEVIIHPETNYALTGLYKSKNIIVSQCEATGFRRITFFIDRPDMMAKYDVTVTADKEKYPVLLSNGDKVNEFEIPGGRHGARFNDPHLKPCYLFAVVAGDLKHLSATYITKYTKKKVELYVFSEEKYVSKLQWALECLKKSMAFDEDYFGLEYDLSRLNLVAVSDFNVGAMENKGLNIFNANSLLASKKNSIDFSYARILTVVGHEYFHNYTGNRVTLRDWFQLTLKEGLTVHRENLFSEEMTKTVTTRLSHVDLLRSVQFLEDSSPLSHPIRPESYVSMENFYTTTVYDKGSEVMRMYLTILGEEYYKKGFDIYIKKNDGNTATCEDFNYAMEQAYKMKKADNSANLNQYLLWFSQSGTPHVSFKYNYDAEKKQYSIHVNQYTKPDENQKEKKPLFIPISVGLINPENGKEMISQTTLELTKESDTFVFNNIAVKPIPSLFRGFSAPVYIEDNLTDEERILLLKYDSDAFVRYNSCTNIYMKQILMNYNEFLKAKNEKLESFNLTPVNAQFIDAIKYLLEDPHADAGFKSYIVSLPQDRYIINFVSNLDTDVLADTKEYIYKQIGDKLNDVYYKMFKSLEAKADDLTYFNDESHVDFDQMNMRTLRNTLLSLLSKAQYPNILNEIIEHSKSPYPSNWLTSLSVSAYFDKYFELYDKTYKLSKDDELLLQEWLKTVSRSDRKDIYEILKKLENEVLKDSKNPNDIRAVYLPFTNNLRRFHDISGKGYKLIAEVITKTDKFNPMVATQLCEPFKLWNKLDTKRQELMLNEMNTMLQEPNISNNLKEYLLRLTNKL

[8] = restored growth of temperature-sensitive Burl-1 yeast – whole organism, S. cerevisiae, Burl-1 ts mutant, luminescence, counter-screen for SUMOylation pathway inhibitor project, dose response (AID 463199); assay type: functional
[9] = A cytotoxicity screen of small molecule inhibitors of the PhoP region in Salmonella typhi identified in the primary screen. [Related pubchem assays: 1850, 1864, 1985 ]; assay type: functional
Tumor necrosis factor = Tumor necrosis factor (Homo sapiens, UniProt P01375); assay: analog potency on TNFa NF-kB signaling – cell-based, revised, SAR follow-up (AID 2337); assay type: functional
Tumor necrosis factor, sequence (P01375 whole entry, the tested form may be a part): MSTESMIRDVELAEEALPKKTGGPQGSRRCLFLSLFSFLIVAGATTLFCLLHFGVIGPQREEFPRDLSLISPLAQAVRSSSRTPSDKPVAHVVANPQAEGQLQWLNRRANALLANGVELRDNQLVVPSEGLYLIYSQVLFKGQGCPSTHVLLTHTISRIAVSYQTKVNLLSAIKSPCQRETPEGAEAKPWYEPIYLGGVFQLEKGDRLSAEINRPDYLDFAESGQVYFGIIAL

[10] = biological target: Nucleotide-binding oligomerization domain-containing protein 1 (Homo sapiens, UniProt Q9Y239); assay: blockers of NOD1 pathway activity – revised, SAR follow-up (AID 2333); assay type: functional
HEK293 = assay: cells; conditions: Homo sapiens;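 note: cells exposed to compound for 14 hours overnight before viability readout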
Cytochrome P450 2C9 [11] = biological target: T2, Cytochrome P450 2C9; remark: listed apart in the source
[12] = suppression of NO production in INS-1E cells – cell-based, Griess absorbance, dry powder, set 3, dose response (AID 488870); assay type: functional; conditions: Rattus norvegicus
[13] = biological target: UDP-galactopyranose mutase (Mycobacterium tuberculosis, UniProt P9WIQ1); assay: Inhibitors of Mycobacterium tuberculosis UDP-galactopyranose mutase (UGM) enzyme Measured in Biochemical System Using Plate Reader - 2105-02_Inhibitor_Dose_CherryPick_Activity. [Related pubchem assays (depositor defined):AID504439]
UDP-galactopyranose mutase, sequence (P9WIQ1 whole entry): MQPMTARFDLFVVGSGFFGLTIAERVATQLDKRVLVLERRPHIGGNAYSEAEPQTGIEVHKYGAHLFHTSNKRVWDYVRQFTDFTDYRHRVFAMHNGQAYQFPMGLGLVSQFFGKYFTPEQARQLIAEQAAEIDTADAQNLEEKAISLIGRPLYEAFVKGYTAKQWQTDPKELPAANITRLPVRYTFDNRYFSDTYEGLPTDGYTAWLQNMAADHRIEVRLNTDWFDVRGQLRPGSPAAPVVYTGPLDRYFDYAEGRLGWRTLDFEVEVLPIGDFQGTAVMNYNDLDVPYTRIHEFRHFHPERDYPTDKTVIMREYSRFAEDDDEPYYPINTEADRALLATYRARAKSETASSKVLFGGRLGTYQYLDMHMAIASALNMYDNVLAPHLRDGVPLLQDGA

Cytochrome P450 2D6 = Cytochrome P450 2D6 (Homo sapiens, UniProt P10635);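 note: CYP2D6 member of a cytochrome P450 panel assay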
Cytochrome P450 2D6, sequence (P10635 whole entry): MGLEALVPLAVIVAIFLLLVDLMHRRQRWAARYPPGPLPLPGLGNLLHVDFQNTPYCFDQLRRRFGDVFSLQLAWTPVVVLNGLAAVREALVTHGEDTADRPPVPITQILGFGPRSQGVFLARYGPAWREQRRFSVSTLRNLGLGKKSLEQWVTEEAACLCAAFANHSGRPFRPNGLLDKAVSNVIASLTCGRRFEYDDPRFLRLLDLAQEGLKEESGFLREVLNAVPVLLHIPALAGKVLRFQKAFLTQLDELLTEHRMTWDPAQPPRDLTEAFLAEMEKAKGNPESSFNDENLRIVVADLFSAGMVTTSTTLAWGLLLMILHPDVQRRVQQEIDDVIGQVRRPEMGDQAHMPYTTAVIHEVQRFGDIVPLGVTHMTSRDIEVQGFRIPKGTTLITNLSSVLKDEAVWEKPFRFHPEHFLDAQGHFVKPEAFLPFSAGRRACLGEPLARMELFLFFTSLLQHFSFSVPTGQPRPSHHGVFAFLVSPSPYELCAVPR

[14] = biological target: T4, Intestinal-type alkaline phosphatase; assay: activation of human intestinal alkaline phosphatase – biochemical, luminescent, uHTS hits, set 2, dose response (AID 488817); assay type: functional;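 note: potency of activators that raise enzyme activity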
[15] = biological target: T5, Intestinal-type alkaline phosphatase; assay: PubChem AID 488875; assay type: functional
[16] = biological target: T4, Intestinal-type alkaline phosphatase; assay: human intestinal alkaline phosphatase activators, dose response, biochemical, luminescence, uHTS hits (AID 463120); assay type: functional
[17] = biological target: T3, Alkaline phosphatase, tissue-nonspecific isozyme; assay: activation of tissue-nonspecific alkaline phosphatase – biochemical, TNAP isozyme, human IAP uHTS hits, selectivity assay for human IAP activator project, dose response (AID 488886); assay type: functional;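 note: potency of compounds raising TNAP activity as a selectivity check on IAP activators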
[18] = biological target: T7, Apoptotic protease-activating factor 1 (Homo sapiens, UniProt O14727); assay: activation of Apaf-1 mediated apoptosis – fluorescent, uHTS hits, dose response (AID 588554); assay type: functional
T7 sequence (O14727 whole entry): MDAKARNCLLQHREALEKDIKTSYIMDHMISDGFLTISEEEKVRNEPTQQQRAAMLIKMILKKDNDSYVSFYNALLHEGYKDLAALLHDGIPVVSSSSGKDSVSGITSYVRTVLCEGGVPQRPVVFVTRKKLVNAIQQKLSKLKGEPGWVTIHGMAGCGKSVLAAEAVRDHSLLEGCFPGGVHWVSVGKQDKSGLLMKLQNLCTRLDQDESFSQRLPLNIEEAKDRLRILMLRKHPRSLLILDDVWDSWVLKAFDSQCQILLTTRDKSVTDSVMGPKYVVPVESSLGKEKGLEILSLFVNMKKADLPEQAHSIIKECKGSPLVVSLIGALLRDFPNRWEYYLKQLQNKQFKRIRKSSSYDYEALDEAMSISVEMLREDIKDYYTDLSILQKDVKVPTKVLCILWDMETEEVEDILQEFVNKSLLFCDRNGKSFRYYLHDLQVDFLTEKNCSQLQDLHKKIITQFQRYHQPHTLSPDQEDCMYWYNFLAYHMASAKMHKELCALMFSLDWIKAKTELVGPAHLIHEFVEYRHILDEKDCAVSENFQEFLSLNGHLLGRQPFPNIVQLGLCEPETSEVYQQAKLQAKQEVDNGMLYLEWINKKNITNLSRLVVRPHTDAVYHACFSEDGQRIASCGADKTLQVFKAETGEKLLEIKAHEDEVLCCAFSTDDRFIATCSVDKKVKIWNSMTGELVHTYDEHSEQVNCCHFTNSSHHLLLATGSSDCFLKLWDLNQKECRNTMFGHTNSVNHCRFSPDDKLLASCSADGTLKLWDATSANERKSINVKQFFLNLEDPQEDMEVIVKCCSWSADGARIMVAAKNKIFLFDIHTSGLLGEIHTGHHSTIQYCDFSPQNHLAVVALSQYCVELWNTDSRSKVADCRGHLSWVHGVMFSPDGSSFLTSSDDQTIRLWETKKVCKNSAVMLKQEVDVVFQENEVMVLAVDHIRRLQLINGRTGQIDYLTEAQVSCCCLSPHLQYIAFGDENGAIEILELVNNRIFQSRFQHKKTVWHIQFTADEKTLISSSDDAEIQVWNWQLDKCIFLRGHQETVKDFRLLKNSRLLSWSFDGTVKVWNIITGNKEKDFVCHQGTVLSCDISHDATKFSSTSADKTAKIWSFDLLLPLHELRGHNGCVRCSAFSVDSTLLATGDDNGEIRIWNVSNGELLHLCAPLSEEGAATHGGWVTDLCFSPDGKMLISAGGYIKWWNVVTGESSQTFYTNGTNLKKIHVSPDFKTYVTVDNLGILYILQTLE

[19] = biological target: Envelope glycoprotein gp160 (Human immunodeficiency virus 1, UniProt Q6QLK5); assay: cell-free HIV fusion peptide-binding blockers – biochemical, uHTS, fluorescence dequenching, […] (AID 1986)
Envelope glycoprotein gp160, sequence (Q6QLK5 whole entry, the tested form may be a part): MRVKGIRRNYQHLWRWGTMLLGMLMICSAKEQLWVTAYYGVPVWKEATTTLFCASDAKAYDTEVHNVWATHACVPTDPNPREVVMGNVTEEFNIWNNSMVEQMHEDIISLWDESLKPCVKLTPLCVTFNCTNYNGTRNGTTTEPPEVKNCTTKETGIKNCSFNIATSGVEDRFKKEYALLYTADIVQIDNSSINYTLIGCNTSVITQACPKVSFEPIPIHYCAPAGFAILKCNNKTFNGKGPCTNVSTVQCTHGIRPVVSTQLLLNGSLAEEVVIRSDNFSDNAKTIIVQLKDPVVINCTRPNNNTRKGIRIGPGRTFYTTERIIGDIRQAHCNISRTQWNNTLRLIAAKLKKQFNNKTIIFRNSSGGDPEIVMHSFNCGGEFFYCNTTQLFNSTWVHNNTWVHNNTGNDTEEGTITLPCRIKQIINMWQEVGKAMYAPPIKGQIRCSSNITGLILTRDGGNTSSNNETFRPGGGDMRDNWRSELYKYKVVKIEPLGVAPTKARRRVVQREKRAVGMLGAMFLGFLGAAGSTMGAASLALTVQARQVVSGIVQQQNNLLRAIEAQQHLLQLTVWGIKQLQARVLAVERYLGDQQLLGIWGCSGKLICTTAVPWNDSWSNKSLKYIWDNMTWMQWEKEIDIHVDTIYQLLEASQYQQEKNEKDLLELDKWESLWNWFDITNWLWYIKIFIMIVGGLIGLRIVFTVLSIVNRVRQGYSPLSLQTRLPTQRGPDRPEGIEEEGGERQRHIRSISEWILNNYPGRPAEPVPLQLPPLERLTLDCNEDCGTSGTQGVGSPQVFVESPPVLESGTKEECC

Cytochrome P450 2C19, sequence (P33261 whole entry): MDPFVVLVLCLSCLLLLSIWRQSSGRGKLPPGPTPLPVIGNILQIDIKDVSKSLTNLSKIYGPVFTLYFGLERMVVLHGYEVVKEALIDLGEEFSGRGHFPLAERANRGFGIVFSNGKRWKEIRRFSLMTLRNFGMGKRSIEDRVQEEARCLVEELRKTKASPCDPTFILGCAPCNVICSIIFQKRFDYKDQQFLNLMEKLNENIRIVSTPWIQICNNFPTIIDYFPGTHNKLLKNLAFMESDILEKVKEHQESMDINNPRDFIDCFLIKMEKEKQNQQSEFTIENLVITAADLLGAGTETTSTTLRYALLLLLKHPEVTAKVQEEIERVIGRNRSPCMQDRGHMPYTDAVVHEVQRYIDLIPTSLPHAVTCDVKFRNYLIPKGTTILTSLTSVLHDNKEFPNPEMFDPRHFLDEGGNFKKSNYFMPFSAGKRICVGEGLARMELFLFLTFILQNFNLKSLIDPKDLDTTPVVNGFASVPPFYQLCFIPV

In the case of `COC(=O)[C@@]1(Cc2ccc(F)cc2)[C@@H]2[C@@H](CC(=O)[C@H]2CC(=O)C(=O)N2CCCC2)CN1C(=O)c1ccccc1`, the AC50 (Cytochrome P450 2C19) was 15.8 µM (inconclusive), the AC50 (Cytochrome P450 1A2) was “inconclusive” and the AC50 (Cytochrome P450 2C9 [1]) was 39.8 µM (inconclusive).
For `CN1CCN(Cc2ccc(OCc3ccccc3)cc2)CC1`, the IC50 [2] was 3.08 µM (active) and the IC50 [3] was 1.8 µM (active).
For `Nc1nnc(CC(=O)N/N=C/c2cc([N+](=O)[O-])cc(Br)c2O)s1`, the IC50 (Bcl-2-like protein 1) was > 109 µM (not active), the IC50 [4] was 20.6 µM (active) and the IC50 [5] was 23.1 µM (not active). The IC50 [6] was > 100 µM (inactive), the IC50 [7] was 2.79 µM (active) and the IC50 (Aminopeptidase N) was 30 µM (active).
In the case of `CC1CCN(CCCCOc2ccc(Cl)cc2)CC1`, the AC50 [8] was 46.3 µM (active) and the EC50 [9] was > 50 µM (active).
In the case of `O=C(Nc1ccc(OC(F)(F)F)cc1)c1ccc(CN2CCc3ccccc3C2)cc1`, the IC50 (Tumor necrosis factor) was 0.0244 µM (active), the IC50 [10] was < 0.0391 µM (active) and the IC50 (HEK293) was > 20 µM (inactive).
With `Cc1ccc(NC(=O)c2nnn(-c3cc(C)cc(C)c3)c2N)cc1` the AC50 (Cytochrome P450 2C9 [11]) was “inconclusive”.
With `C[C@@H]1CN([C@@H](C)CO)C(=O)c2cccc(NC(=O)Nc3cccc4ccccc34)c2O[C@H]1CN(C)C(=O)Nc1ccc2c(c1)OCO2` the AC50 [12] was 51.5 µM (active).
For `CCCCCCNC(=O)C(C#N)c1nc2ccccc2nc1N1CCOCC1` (stereo unspecified), the AC50 [13] was 70 µM (active).
For `COc1ccccc1NC(=O)c1nc[nH]c1C(=O)Nc1ccccc1OC`, the AC50 (Cytochrome P450 2D6) was “inconclusive”.
With `COc1cc(NC(=O)NCC2CCN(Cc3ccccc3C)CC2)cc(OC)c1OC` the EC50 [14] was 64.7 µM (active), the EC50 [15] was 52.6 µM (active) and the EC50 [16] was 70 µM (active). For the same compound, the EC50 [17] was 73.9 µM (active).
With `O=C(O)CCN1C(=O)/C(=C\c2ccc(OCc3ccccc3)c(OCc3ccccc3)c2)SC1=S` the EC50 [18] was 18.7 µM (active) and the IC50 [19] was 10.2 µM (active).

Reference: ChEMBL document CHEMBL1201862, “PubChem BioAssay data set” (2004)
